Experimental data from publication PMC4933591 (Bioconjugate chemistry, 2015).
Non-standard residues stand in square brackets, D forms with d. Residues, ends and D or L forms follow the SMILES beside them. Aha = [N-]=[N+]=NCC[C@H](N)C(=O)O

Experiments:
GLP-1R = target: T1, GLP-1R (Mus musculus, UniProt O35659); experiment: In vitro receptor binding assay using NIT-1 cells
T1 sequence (O35659 22-463): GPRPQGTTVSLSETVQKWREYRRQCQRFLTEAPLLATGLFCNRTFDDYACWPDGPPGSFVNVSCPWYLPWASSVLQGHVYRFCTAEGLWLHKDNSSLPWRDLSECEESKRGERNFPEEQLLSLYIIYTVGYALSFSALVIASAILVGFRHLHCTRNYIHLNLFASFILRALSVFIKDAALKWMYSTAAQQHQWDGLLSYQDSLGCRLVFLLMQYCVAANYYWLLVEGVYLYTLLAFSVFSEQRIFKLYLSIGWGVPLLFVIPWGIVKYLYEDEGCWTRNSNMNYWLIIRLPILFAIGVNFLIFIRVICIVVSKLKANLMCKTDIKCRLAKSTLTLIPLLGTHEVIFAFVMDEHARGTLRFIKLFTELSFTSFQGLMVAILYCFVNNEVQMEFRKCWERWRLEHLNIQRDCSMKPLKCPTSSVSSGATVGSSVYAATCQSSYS

[1] = Aggregation observed during experiments; type: physicochemical; conditions: lower concentrations during experiments

For `CC[C@H](C)[C@H](NC(=O)[C@H](Cc1ccccc1)NC(=O)[C@H](CCN=[N+]=[N-])NC(=O)[C@H](CCCCN)NC(=O)[C@H](C)NC(=O)[C@H](C)NC(=O)[C@H](CCC(N)=O)NC(=O)CNC(=O)[C@H](CCC(=O)O)NC(=O)[C@H](CCN=[N+]=[N-])NC(=O)[C@H](Cc1ccc(O)cc1)NC(=O)[C@H](CO)NC(=O)[C@H](CO)NC(=O)[C@@H](NC(=O)[C@H](CC(=O)O)NC(=O)[C@H](CO)NC(=O)[C@@H](NC(=O)[C@H](Cc1ccccc1)NC(=O)[C@@H](NC(=O)CNC(=O)[C@H](CCC(=O)O)NC(=O)[C@H](C)NC(=O)[C@@H](N)Cc1c[nH]cn1)[C@@H](C)O)[C@@H](C)O)C(C)C)C(=O)N[C@@H](C)C(=O)N[C@@H](Cc1c[nH]c2ccccc12)C(=O)N[C@@H](CC(C)C)C(=O)N[C@H](C(=O)N[C@@H](CCCCN)C(=O)NCC(=O)N[C@@H](CCCNC(=N)N)C(N)=O)C(C)C` [double mutant GLP-1] (H-HAEGTFTSDVSSY[Aha]EGQAAK[Aha]FIAWLVKGR-NH2), the Kd (GLP-1R) was 5.6 nM, the aggregation [1] was “no aggregation was detected at lower concentrations” and the “half-life slower than wild-type GLP-1” value (trypsin) was 1 to 2 orders of magnitude.
